The values that follow come from patent US20210386705A1, “APPLICATION OF CHIGLITAZAR AND RELATED COMPOUNDS THEREOF” (SHENZHEN CHIPSCREEN BIOSCIENCES CO., LTD., priority 2018, published 2021).

One assay has as its target T1, PPARα (Homo sapiens, UniProt Q07869).
T1 construct: expressed in transfected cells; host or cells: human hepatocyte cell line L-02
T1 sequence (Q07869 1-468): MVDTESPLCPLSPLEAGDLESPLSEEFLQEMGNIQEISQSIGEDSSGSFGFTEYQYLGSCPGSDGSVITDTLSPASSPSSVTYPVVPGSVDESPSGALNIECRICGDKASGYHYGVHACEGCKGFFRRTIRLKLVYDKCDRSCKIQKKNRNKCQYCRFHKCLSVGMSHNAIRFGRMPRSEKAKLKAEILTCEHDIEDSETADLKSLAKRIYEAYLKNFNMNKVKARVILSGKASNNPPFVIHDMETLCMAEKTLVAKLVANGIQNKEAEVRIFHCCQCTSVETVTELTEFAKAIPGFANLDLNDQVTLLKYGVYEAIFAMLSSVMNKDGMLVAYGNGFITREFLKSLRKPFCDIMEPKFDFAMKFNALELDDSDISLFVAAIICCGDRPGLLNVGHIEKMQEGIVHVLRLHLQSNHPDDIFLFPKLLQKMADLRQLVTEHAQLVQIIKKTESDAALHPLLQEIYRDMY
Put plainly: PPAR reporter gene model in L-02 cells, PPARα. The assay is classed as cell-based. Conditions: luciferase reporter, 24 hours drug, read-out: Half-maximal activation concentration of reporter gene AC50, PPARα. On the procedure:
The PPAR reporter gene model comprises three subtypes of expression plasmids, RXR expression plasmid, plasmid with luciferase reporter gene, and GFP expression plasmid as an external reference. The human hepatocyte cell line L-02 cells were seeded into 96-well plates at the density of 15,000 cells/well with about 50% plating rate, followed by culturing for 24 hours at 37° C. […] The fluorescence intensity (at wavelength 485-527 nm) of green fluorescent protein (GFP) in each well was firstly detected as an internal standard by a fluorescence detector, and then 30 μL of luciferase substrates (Promega, E151A) were added to each well. After slightly shaking to mix well, the […] were detected. The relative reporter gene activation intensity was obtained by the ratio of the fluorescence detection signal of the drugs to be tested to that of the solvent control, with both the signals normalized to the internal standard GFP signal. The half-maximal activation (AC50) of the drugs to be tested was calculated with the activity at various concentrations (shown in Table 1).

The test system of assay [1] is primary human dermal fibroblasts. Description: PDGF-BB stimulated proliferation of dermal fibroblasts (MTT assay). The assay is classed as cell-based. Conditions: MTT 72 hours, FIG. 3. How it is done: Primary human hepatic stellate cells or primary human dermal fibroblasts (HDF), both purchased from Sciencell, were seeded into 96-well plates with complete growth media (Stellate Cell Medium or Fibroblast Cell Medium) for 24 hours, followed by culturing overnight in the culture media free of serum and growth factors, and then the culture media were replaced by fresh medium containing platelet-derived growth factor (PDGF-BB) and the compounds to be tested at various concentrations, and the cells was cultured for another 72 hours. Measurement was performed using a conventional MTT assay kit (Promega). […] The inhibition of cell proliferation by the compounds was determined by comparing the absorbance value of the control group (FIGS. 2, 3).
A general note: Tetrazolium assays rely on reduction of a dye to a coloured formazan, in cell work by metabolically active cells.

For a further assay, the system named is THP-1 cells. Description: Inflammatory factor gene expression (MCP-1, TNFα) in PMA-activated THP-1 cells (qPCR). The class given is cell-based, human. Conditions: 6 hours, FIG. 5. On the procedure:
Human acute monocytic leukemia mononuclear cell line (THP-1) cells were activated by a certain concentration of phorbol esters (Phorbol-12-myristate-13-acetate, PMA) and differentiated into macrophages. Through this cell model, the activating effects of sodium chiglitazar and other compounds on the expression of THP-1 related inflammatory factors were detected.
THP-1 cells were seeded into 6-well plates with complete growth media for 24 hours, and then the culture media were replaced by fresh media containing PMA and the compound to be tested (sodium chiglitazar) or the reference compound GFT505 (PPARα/δ dual agonist), and the cells were cultured for 6 hours. The total RNAs of the samples were extracted, and cDNA templates were synthesized by reverse transcription reaction (Transcriptor First Strand cDNA Synthesis Kit, Roche). Thereafter, a conventional PCR amplification kit (FastStart Universal SYBR@ Green Master (ROX), Roche) was used for semi-quantitative gene expression detection on the ABI StepOnePlus real-time quantitative PCR instrument.
The relative expression change of the target genes was obtained by using the internal reference β-actin gene (ACTB) as the standard for normalization, compared with the untreated cell samples, and the relative expression change folds were calculated (FIG. 5).
A general note: Real-time PCR tracks product formation cycle by cycle.

Assay [2] relates to CCl4-induced liver fibrosis. Put plainly: Mouse model of carbon tetrachloride induced liver fibrosis. The assay is classed as in vivo, BALB/c mice. Conditions: 40, 20 and 10 mg/kg intragastrically, from the fourth week to the 7th week. How it is done: BALB/c mice were injected intraperitoneally with 25% CCl4 (4 mL/kg body weight) twice a week, which can cause liver damage and chronic liver fibrosis in 3 weeks. The model animals were administered for 6 weeks continuously, and the non-model control group was administered the solvent control olive oil for the same period. Model animals were randomly divided into groups from the third week. The control group was administered solvent (0.2% sodium methylcellulose) intragastrically from the fourth week, and the sodium chiglitazar at high, medium and low dose groups were administered 40, 20, and 10 mg/kg body weight of the active ingredient sodium chiglitazar intragastrically, respectively (Table 4), until the end of the experiment in the 7th week. […]
The liver tissue sections were stained with Picrosirius Red for morphological observation (FIG. 9), and measured by using a semi-automatic digital image analysis system and the measurement software (OsteoMetrics, Inc.). The pathologist single-blindly tested and hand-drew the entire sections, and then measured the fibrosis area on the entire sections in straight lines. The software automatically calculated the total area of the measurement. […]

The structures appear in SMILES notation.

Turning to `O=C(c1ccc(F)cc1)c1ccccc1N[C@@H](Cc1ccc(OCCn2c3ccccc3c3ccccc32)cc1)C(=O)[O-].[Na+]` [sodium chiglitazar], the AC50 on PPARα was determined as 1100 nM. Moreover, the “Inhibition of in vitro proliferation of skin-derived fibroblasts” value in assay [1] was “had inhibitory activity”. The “Inhibition of phorbol esters-mediated activation of monocyte and related gene expression” value in the assay on THP-1 cells is “significantly inhibit”. In addition, the “Inflammatory activity of liver tissues (Metavir score, H&E staining)” value in assay [2] (FIGS. 7-8) is on record as “partially inhibit”. Moreover, the “Fibrosis degree of liver tissues (fibrosis area %, Picrosirius Red)” value in assay [2] (FIGS. 9-10) is “partially inhibit”.
